Among the data in patent US20240199676A1, “ANTIVIRAL COMPOUNDS AND METHODS OF MAKING AND USING THE SAME” (Gilead Sciences, Inc., priority 2022, published 2024) are EC50 values, retold here.

Assay [1] concerns Respiratory syncytial virus recombinant with luciferase (RSV-Luc5) in HEp-2 cells. The assay is described as follows: HEp-2 RSV-Luc5 384-well Assay (EC50 RSVFLUC Hep2-384 v2, Ex. V). The assay is classed as cell-based. The settings on record: human respiratory syncytial virus, HEp-2, 72 h, read-out: EC50 RSV FLuc Hep-2 384 V2 (per Ex. V). The procedure, abridged:
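HEp-2 cells (4,000/well) with 10-point 1:3 compound dilutions were infected with RSV-Luc5 at MOI 0.5 and incubated 3 days at 37 °C. Replication was read by One-Glo luminescence and normalized to remdesivir (0%) and DMSO (100%) controls. EC50 is the concentration reducing replication by 50%, from non-linear regression.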

For assay [2], the system named is Human Rhinovirus 16 (HRV16) in H1-HeLa cells. The assay can be described thus: H1-HeLa HRV-CTG 384-well Assay (Ex. Y), HRV16. The assay is classed as cell-based. The settings on record: Rhinovirus A, 96 h; H1-HeLa cells, HRV16 MOI 0.25, 4 days, Celltiter-Glo; read-out: EC50 H1-HeLa_HRV16_HRV-CTG 384-well Assay (per Ex. Y). An excerpt: Example Y: H1-HeLa HRV-CTG 384-well Assay
H1-Hela cell line (ATCC, Manassas, VA, Cat #CRL-1958) was maintained in Dulbecco's […] (DMEM) (Corning, New York, NY, Cat #15-018CM) supplemented with 10% fetal bovine serum (FBS) (Hyclone, Logan, UT, Cat #SH30071-03), and 1× Penicillin-Streptomycin-L-Glutamine (Corning, New York, NY, Cat #30-009-CI). Cells were passaged 2 times per week to maintain sub-confluent densities and were used for experiments at passage 5-30. The Human Rhinovirus 1B (HRV1B) (ATCC, Manassas, VA, Cat #VR-1645) , Human Rhinovirus 14 (HRV14) (ATCC, Manassas, VA, Cat #VR-284), and Human Rhinovirus 16 (HRV16) (ATCC, Manassas, VA, Cat #BR-283) was obtained through ATCC. Viral infection was monitored by determining viability of H1-HeLa cells as described below.
Test molecules are prepared in 100% DMSO in 384-well polypropylene plates (Greiner, Monroe, NC, Cat #784201) with 8 compounds per plate in grouped replicates of 4 at 10 serially diluted concentrations (1:3). The serially diluted compounds were transferred to low dead volume Echo plates (Labcyte, Sunnyvale, CA, Cat #LP-0200).
The test compounds were spotted to 384-well assay plates (Greiner, Monroe, NC, Cat#781091) at 200 nL per well using an Echo acoustic dispenser (Labcyte, Sunnyvale, CA). H1-HeLa cells were harvested and suspended in DMEM (supplemented with 2% FBS and 1× Penicillin-Streptomycin-L-Glutamine) and seeded to the pre-spotted assay plates at 5,000 cells per well in 30 μL. HRV1B, HRV14, and HRV16 was diluted in DMEM (supplemented with 2% FBS and 1× Penicillin-Streptomycin-L-Glutamine) at 97.1 million Infectious Units (IU) per mL, 151 million IU per mL and 221 million IU per mL respectively. 10 μL of virus per well was added to the assay plates containing cells and compounds, for an MOI of 0.5, 1.0, and 0.25 respectively. The assay plates were incubated for 4 days at 37° C. and 5% CO2. At the end of incubation, Celltiter-Glo (Promega, Madison, WI, Cat #(Ga7573) was prepared. The assay plates and Celltiter-Glo reagent were equilibrated to room temperature for at least 15 minutes. 40 μL per well of Celltiter-Glo reagent was added and the plates were incubated at room temperature for 15 minutes before reading the luminescence signal on an EnVision multimode plate reader (Perkin Elmer, Waltham, MA). Rupintrivir was used as positive control and DMSO was used as negative control. Values were normalized to the positive and negative controls (as 0% and 100% replication, respectively) and data was fitted using non-linear regression analysis by Gilead's dose response tool. The EC50 value for each compound was defined as the concentration reducing viral replication by 50%.

Some results are limits rather than exact numbers.

As a reminder, the EC50 is the concentration at which the effect is half-maximal. For `CCC(CC)C(=O)Nc1ncnn2c([C@@H]3O[C@](C#N)(COC(=O)C(CC)CC)[C@@H](O)[C@H]3O)ccc12` [Compound 11, ((2R,3S,4R,5S)-2-cyano-5-(4-(2-ethylbutanamido)pyrrolo[2,1-f][1,2,4]triazin-7-yl)-3,4-dihydroxytetrahydrofuran-2-yl)methyl 2-ethylbutanoate], the values for the EC50 in assay [1] and in assay [2] were 41.5 µM and 50 µM, respectively.
For the compound `CC(C)(C)CC(=O)OC[C@@]1(C#N)O[C@@H](c2ccc3c(N)ncnn23)[C@H](O)[C@@H]1O` [Compound 13, ((2R,3S,4R,5S)-5-(4-aminopyrrolo[2,1-f][1,2,4]triazin-7-yl)-2-cyano-3,4-dihydroxytetrahydrofuran-2-yl)methyl 3,3-dimethylbutanoate], the EC50 in assay [1] and in assay [2] was 50 µM in each case.
Regarding `CCC(C)(C)C(=O)OC[C@@]1(C#N)O[C@@H](c2ccc3c(N)ncnn23)[C@H](O)[C@@H]1O` [Compound 35, ((2R,3S,4R,5S)-5-(4-aminopyrrolo[2,1-f][1,2,4]triazin-7-yl)-2-cyano-3,4-dihydroxytetrahydrofuran-2-yl)methyl 2,2-dimethylbutanoate], the EC50 in assay [1] is 24.4 µM; in assay [2] it was 48.2 µM.
Take `CCCC(=O)OC[C@@]1(C#N)O[C@@H](c2ccc3c(N)ncnn23)[C@H](O)[C@@H]1O` [Compound 6, ((2R,3S,4R,5S)-5-(4-aminopyrrolo[2,1-f][1,2,4]triazin-7-yl)-2-cyano-3,4-dihydroxytetrahydrofuran-2-yl)methyl butyrate]: the EC50 in assay [1] is 16.8 µM; in assay [2], 8.23 µM.
Consider `CC(C)C(=O)Nc1ncnn2c([C@@H]3O[C@](C#N)(CO)[C@@H](O)[C@H]3O)ccc12` [Compound 30, N-(7-((2S,3R,4S,5R)-5-cyano-3,4-dihydroxy-5-(hydroxymethyl)tetrahydrofuran-2-yl)pyrrolo[2,1-f][1,2,4]triazin-4-yl)isobutyramide], for which the concentration for a half-maximal effect (EC50) in assay [1] was above 50 µM; in assay [2], 50 µM.
The matching figures for `CC(C)C(=O)O[C@H]1[C@H](c2ccc3c(N)ncnn23)O[C@](C#N)(COC(=O)c2ccccc2)[C@H]1O` [Compound 22, ((2R,3S,4R,5S)-5-(4-aminopyrrolo[2,1-f][1,2,4]triazin-7-yl)-2-cyano-3-hydroxy-4-(isobutyryloxy)tetrahydrofuran-2-yl)methyl benzoate]: 32.1 µM and 33.1 µM.
